# Assay results published in US7910344B2, “Proteins having tyrosinase activity” (Valtion teknillinen tutkimuskeskus, priority 2005, dated 2011).
# Like-named read-outs stand apart in the source and are kept apart here.
# Key:
# [1] = system: Agaricus bisporus crude tyrosinase (Sigma); assay: Substrate specificity by oxygen consumption measurements, commercial Agaricus tyrosinase; type: biochemical; conditions: for Agaricus tyr Relative oxygen consumption (%): mono-phenols
# Description: (§1) pH optimum for the tyrosinase was studied by oxygen consumption measurements. Measurements were performed with a single channel oxygen meter (Precision sensing GmbH, Germany) containing fiber-optic oxygen minisensors with measurement range 0-100% oxygen. L-Dopa in 15 mM concentration, dissolved in 0.1 M sodium phosphate buffer, pH 7.0, was used as substrate. Reactions were carried out with 1.8 ml substrate solution and with 4.3 μg of the purified T. reesei tyrosinase. Three different buffers were used according to their buffer capacity. McIlvaine buffer was used within a pH range of 2-7, Tris-HCl buffer (50 mM) within a pH range 7-9 and borate buffer (12.5 mM) within a pH range of 8-9.5. […] In the measurements with Tris-HCl buffer in pH 8, 8.5 and 9.0 also a blank test without enzyme addition was performed to correct the effect of auto-oxidation in results.
# (§2) Substrate specificity of the tyrosinase on various selected substrates was studied by oxygen consumption measurements. The concentration of substrates was 2.5 mM, and the compounds were dissolved in 0.1 M sodium phosphate buffer, pH 7.0. Reactions were carried out with 1.8 ml of 2.5 mM substrate solutions and with 24 μg of the purified TYR2. As a reference the substrate specificity assays were also determined for the commercial Agaricus bisporus crude tyrosinase (Sigma). Respectively, 50 μg of said mushroom tyrosinase was used in the assays. Activity of TYR2 and Agaricus tyrosinase were analyzed on selected model peptides containing tyrosine in different positions in the peptide chain (Table 5). Oxidation of L-/DL-D-Dopa and -tyrosine by TYR2 and Agaricus tyrosinase was also measured (Table 6).
# TYR2 [2] = assay: Substrate specificity by oxygen consumption measurements, purified TYR2; type: biochemical, Trichoderma reesei
# Description: as §1, §2
# Trichoderma reesei = assay: Plate test screening for tyrosinase activity from T. reesei; type: cell-based; conditions: T. reesei on Malt Extract agar with indicator
# Description: The indicators for tyrosinase activity screening were selected according to literature. L-Tyrosine, p-cresol, p-coumaric acid, tyramine, 3-hydroxy antranilic acid, and catechin were used in concentrations shown in Table 1. Trichoderma reesei was grown on Malt Extract agar containing the selected indicators (Table 1) (Difco) at 37° C. for 48 days. Possible colour changes on the plates were observed visually.
# TYR2 [3] = assay: Tyrosinase activity assay monitoring dopachrome formation at 475 nm; type: biochemical, Trichoderma reesei
# Description: The activity was also measured on L-tyrosine (Sigma) in concentration of 2 mM. Both activity assays were carried out in 0.1 M sodium phosphate buffer (pH 7.0) at 25° C. monitoring dopachrome formation at 475 nm. The molar extinction coefficient ε 3400 M^−1 cm^−1 (Robb, 1984) was used. Measurements were carried out by using a two-beam spectrophotometer (Lambda 20, Perkin-Elmer, Über-lingen, Germany). Activities were expressed as nanokatals.
# The result was also confirmed by determining the enzyme activity on L-Dopa and L-tyrosine by following oxygen consumption in enzymatic reaction. […] The effect of SDS (Sigma) on tyrosinase activity was measured using different concentrations of SDS in the activity assay.
# [4] = in relation to L-tyrosine, 2.5 mM substrate, pH 7.0, 50 μg mushroom tyrosinase
# [5] = mono-phenols, in relation to L-tyrosine, 2.5 mM substrate, pH 7.0, 24 μg TYR2
# [6] = di- and tri-phenolic compounds, in relation to L-Dopa, 2.5 mM substrate, pH 7.0, 50 μg mushroom tyrosinase
# [7] = di- and tri-phenolic compounds, in relation to L-Dopa, 2.5 mM substrate, pH 7.0, 24 μg TYR2
# [8] = di-peptides, in relation to L-tyrosine, 2.5 mM substrate, pH 7.0
# [9] = L-/DL-/D-tyrosine, L-tyrosine = 100
compound,measurement,setting,value
COc1cc(/C=C/C(=O)O)ccc1O [Ferulic acid],Agaricus tyr Relative oxygen consumption (%),[1]; [4],0%
same,TYR2 Relative oxygen consumption (%),TYR2 [2]; [5],0%
N[C@H](Cc1ccc(O)c(O)c1)C(=O)O [D-dopa],Agaricus tyrosinase Relative oxygen consumption (%),"[1]; L-/DL-/D-dopa, L-dopa = 100",106%
same,TYR2 Relative oxygen consumption (%),"TYR2 [2]; L-/DL-/D-dopa, L-dopa = 100",18%
Cc1ccc(O)cc1 [p-Cresol],Agaricus tyr Relative oxygen consumption (%),[1]; [4],104%
same,TYR2 Relative oxygen consumption (%),TYR2 [2]; [5],172%
Catechin,Reaction with indicator in plate test,Trichoderma reesei,clear positive reactions
Oc1cc(O)c2c(c1)O[C@H](c1ccc(O)c(O)c1)[C@H](O)C2 [(−)-Epicatechin],Agaricus tyrosinase Relative oxygen consumption (%),[1]; [6],286%
same,TYR2 Relative oxygen consumption (%),TYR2 [2]; [7],106%
OCCc1ccc(O)cc1 [p-Tyrosol],Agaricus tyr Relative oxygen consumption (%),[1]; [4],157%
same,TYR2 Relative oxygen consumption (%),TYR2 [2]; [5],346%
NC(Cc1ccc(O)c(O)c1)C(=O)O (racemic) [DL-dopa],Agaricus tyrosinase Relative oxygen consumption (%),"[1]; L-/DL-/D-dopa, L-dopa = 100",118%
same,TYR2 Relative oxygen consumption (%),"TYR2 [2]; L-/DL-/D-dopa, L-dopa = 100",46%
N[C@@H](Cc1ccc(O)cc1)C(=O)O [L-Tyrosine],Reaction with indicator in plate test,Trichoderma reesei,clear positive reactions
same,Agaricus tyrosinase Relative oxygen consumption (%),[1],100%
same,Agaricus tyrosinase Relative oxygen consumption (%),[1]; [8],100%
same,Agaricus tyr Relative oxygen consumption (%),[1]; [4],100%
same,TYR2 Relative oxygen consumption (%),TYR2 [2]; [9],100%
same,TYR2 Relative oxygen consumption (%),TYR2 [2]; [8],100%
same,TYR2 Relative oxygen consumption (%),TYR2 [2]; [5],100%
"N[C@@H](Cc1ccc(O)c(O)c1)C(=O)O [L-Dopa, L-3,4 dihydroxyphenylalanine]",Agaricus tyrosinase Relative oxygen consumption (%),"[1]; L-/DL-/D-dopa, L-dopa = 100",100%
same,Agaricus tyrosinase Relative oxygen consumption (%),[1]; [6],100%
same,Activity on L-Dopa compared with L-tyrosine,"TYR2 [3]; 15 mM L-Dopa, 2 mM L-tyrosine, pH 7.0, 25° C.",approximately six times higher activity values than L-tyrosine
same,TYR2 Relative oxygen consumption (%),"TYR2 [2]; L-/DL-/D-dopa, L-dopa = 100",100%
same,TYR2 Relative oxygen consumption (%),TYR2 [2]; [7],100%
NC(Cc1ccc(O)cc1)C(=O)O (racemic) [DL-tyrosine],Agaricus tyrosinase Relative oxygen consumption (%),[1],102%
same,TYR2 Relative oxygen consumption (%),TYR2 [2]; [9],40%
Nc1ccc(O)cc1 [4-Aminophenol],Agaricus tyr Relative oxygen consumption (%),[1]; [4],9%
same,TYR2 Relative oxygen consumption (%),TYR2 [2]; [5],8%
Oc1ccccc1O [Pyrocatechol],Agaricus tyrosinase Relative oxygen consumption (%),[1]; [6],328%
same,TYR2 Relative oxygen consumption (%),TYR2 [2]; [7],88%
NCCc1ccc(O)cc1 [Tyramine],Reaction with indicator in plate test,Trichoderma reesei,clear positive reactions
same,Agaricus tyr Relative oxygen consumption (%),[1]; [4],85%
same,TYR2 Relative oxygen consumption (%),TYR2 [2]; [5],42%
O=C(O)C=Cc1ccc(O)cc1 [p-Coumaric acid],Agaricus tyr Relative oxygen consumption (%),[1]; [4],0%
same,TYR2 Relative oxygen consumption (%),TYR2 [2]; [5],390%
Oc1ccccc1 [Phenol],Agaricus tyr Relative oxygen consumption (%),[1]; [4],85%
same,TYR2 Relative oxygen consumption (%),TYR2 [2]; [5],121%
Nc1c(O)cccc1C(=O)O [3-Hydroxyanthranilic acid],Reaction with indicator in plate test,Trichoderma reesei,clear positive reactions
same,Agaricus tyr Relative oxygen consumption (%),[1]; [4],0%
same,TYR2 Relative oxygen consumption (%),TYR2 [2]; [5],0%
Oc1cccc(O)c1O [Pyrogallol],Agaricus tyrosinase Relative oxygen consumption (%),[1]; [6],248%
same,TYR2 Relative oxygen consumption (%),TYR2 [2]; [7],55%
"CCCCCCCCCCCCOS(=O)(=O)[O-].[Na+] [SDS, sodium dodecyl sulfate]",Tyrosinase activity left in presence of SDS,TYR2 [3]; 0.5 mM SDS in the activity assay,50%
Oc1ccc(S)cc1 [4-Mercaptophenol],Agaricus tyr Relative oxygen consumption (%),[1]; [4],0%
same,TYR2 Relative oxygen consumption (%),TYR2 [2]; [5],0%
O=C(O)C=Cc1ccccc1O [o-Coumaric acid],Agaricus tyr Relative oxygen consumption (%),[1]; [4],0%
same,TYR2 Relative oxygen consumption (%),TYR2 [2]; [5],0%
N[C@H](Cc1ccc(O)cc1)C(=O)O [D-tyrosine],Agaricus tyrosinase Relative oxygen consumption (%),[1],61%
same,TYR2 Relative oxygen consumption (%),TYR2 [2]; [9],7%
Oc1cc(O)c2c(c1)O[C@H](c1ccc(O)c(O)c1)[C@@H](O)C2 [(+)-Catechin hydrate],Agaricus tyrosinase Relative oxygen consumption (%),[1]; [6],282%
same,TYR2 Relative oxygen consumption (%),TYR2 [2]; [7],220%
